According to patent US20230165980A1, “METHODS FOR RADIOLABELING PSMA BINDING LIGANDS AND THEIR KITS” (Novartis AG, priority 2020, published 2023):

Experiment: Radiochemical purity and radiochemical stability of ^68GaPSMA-11 by HPLC
Format: physicochemical
Procedure: Radiochemical Purity and Identification of ^68GaPSMA-11 by HPLC
Chromatographic Conditions
Radical Scavenger to be used for the improvement of the radiochemical stability of ^68Ga-PSMA-11, tests were performed according to a varied approach in order to consider all the parameters that may affect the radiochemical purity of the product (activity, pH, volume, amount of Gentisic Acid).
Stability tests were performed on the freeze dried product containing the final formulation. […] Kits manufactured with the final formulation, indeed, were stored at different stability conditions (2-8° C.; 25° C. and 40° C.) and were tested at different time points for API-assay, Radiochemical Purity and Radiochemical Stability of the radiolabelled product. Radiochemical Purity and Stability were assessed only eluting IRE Generator which represented the most stressful condition in terms of Radioactive Concentration (Volumic Activity).

[1] = t4 h, Gentisic Acid 0 μg, IRE 17.19 mCi, 1 mL, pH 5.24
[2] = t4 h, Gentisic Acid 200 μg, IRE 17.85 mCi, 1 mL, pH 5.22
[3] = t4 h, Gentisic Acid 200 μg, IRE 18.07 mCi, 1 mL, pH 5.25
[4] = t4 h, Gentisic Acid 200 μg, ITG 35.92 mCi, 4 mL, pH 4.83
[5] = t4 h, Gentisic Acid 400 μg, IRE 17.44 mCi, 1 mL, pH 5.13
[6] = t4 h, Gentisic Acid 400 μg, IRE 17.79 mCi, 1 mL, pH 5.11
[7] = t4 h, Gentisic Acid 400 μg, ITG 16.9 mCi, 4 mL, pH 4.85
[8] = t4 h, Gentisic Acid 400 μg, ITG 31.97 mCi, 4 mL, pH 4.81
[9] = t4 h, Gentisic Acid 1000 μg, E&Z 15.65 mCi, 5 mL, pH 3.75
[10] = t4 h, Gentisic Acid 1000 μg, IRE 17.1 mCi, 1 mL, pH 5.08
[11] = t4 h, Gentisic Acid 1000 μg, ITG 30.9 mCi, 4 mL, pH 4.87
[12] = t4 h, final formulation kit at Release, E&Z 15.65 mCi, 5 mL, pH 3.75
[13] = t4 h, final formulation kit at Release, E&Z 16.80 mCi, 5 mL, pH 3.75
[14] = t4 h, final formulation kit at Release, IRE 32.27 mCi, 1 mL, pH 4.95
[15] = t4 h, final formulation kit at Release, IRE 32.95 mCi, 1 mL, pH 5.07
[16] = t4 h, final formulation kit at Release, ITG 29.74 mCi, 4 mL, pH 4.67
[17] = t4 h, final formulation kit at Release, ITG 30.90 mCi, 4 mL, pH 4.67
[18] = t4 h, kit stored 3 months at 2-8° C., IRE 25.76 mCi, 1 mL, pH 5.29
[19] = t4 h, kit stored 3 months at 25° C., IRE 24.56 mCi, 1 mL, pH 5.16
[20] = t4 h, kit stored 3 months at 40° C., IRE 24.86 mCi, 1 mL, pH 5.23
[21] = t4 h, kit stored 6 months at 2-8° C., IRE 19.90 mCi, 1 mL, pH 5.13
[22] = t4 h, kit stored 6 months at 25° C., IRE 18.88 mCi, 1 mL, pH 5.09
[23] = t4 h, kit stored 6 months at 40° C., IRE 19.34 mCi, 1 mL, pH 5.15

^68Ga-PSMA-11 [[^68Ga] Gallium PSMA-11]
[^68Ga] Gallium main degradant, HPLC (t0 h, kit stored 6 months at 40° C., IRE 19.34 mCi, 1 mL, pH 5.15): 0.42% | [^68Ga] Gallium PSMA-11 (sum of stereosiomers), HPLC [1]: 90.89% | [^68Ga] Gallium free, HPLC [1]: 0.14% | [^68Ga] Gallium main degradant, HPLC [1]: 7.32% | [^68Ga] Gallium PSMA-11 (sum of stereosiomers), HPLC [2]: 97.87% | [^68Ga] Gallium free, HPLC [2]: 0.00% | [^68Ga] Gallium main degradant, HPLC [2]: 1.80% | [^68Ga] Gallium PSMA-11 (sum of stereosiomers), HPLC [3]: 97.80% | [^68Ga] Gallium free, HPLC [3]: 0.00% | [^68Ga] Gallium main degradant, HPLC [3]: 1.74% | [^68Ga] Gallium PSMA-11 (sum of stereosiomers), HPLC [4]: 99.72% | [^68Ga] Gallium free, HPLC [4]: 0.00% | [^68Ga] Gallium main degradant, HPLC [4]: 0.00% | [^68Ga] Gallium PSMA-11 (sum of stereosiomers), HPLC [5]: 99.20% | [^68Ga] Gallium free, HPLC [5]: 0.00% | [^68Ga] Gallium main degradant, HPLC [5]: 0.68% | [^68Ga] Gallium PSMA-11 (sum of stereosiomers), HPLC [6]: 98.46% | [^68Ga] Gallium free, HPLC [6]: 0.00% | [^68Ga] Gallium main degradant, HPLC [6]: 1.54% | [^68Ga] Gallium PSMA-11 (sum of stereosiomers), HPLC [7]: 98.24% | [^68Ga] Gallium free, HPLC [7]: 0.00% | [^68Ga] Gallium main degradant, HPLC [7]: 0.00% | [^68Ga] Gallium PSMA-11 (sum of stereosiomers), HPLC [8]: 99.57% | [^68Ga] Gallium free, HPLC [8]: 0.00% | [^68Ga] Gallium main degradant, HPLC [8]: 0.00% | [^68Ga] Gallium PSMA-11 (sum of stereosiomers), HPLC [9]: 100.00% | [^68Ga] Gallium free, HPLC [9]: 0.00% | [^68Ga] Gallium main degradant, HPLC [9]: 0.00% | [^68Ga] Gallium PSMA-11 (sum of stereosiomers), HPLC [10]: 99.59% | [^68Ga] Gallium free, HPLC [10]: 0.00% | [^68Ga] Gallium main degradant, HPLC [10]: 0.41% | [^68Ga] Gallium PSMA-11 (sum of stereosiomers), HPLC [11]: 99.69% | [^68Ga] Gallium free, HPLC [11]: 0.00% | [^68Ga] Gallium main degradant, HPLC [11]: 0.06% | [^68Ga] Gallium PSMA-11 (sum of stereosiomers), HPLC [12]: 100.00% | [^68Ga] Gallium free, HPLC [12]: 0.00% | [^68Ga] Gallium main degradant, HPLC [12]: 0.00% | [^68Ga] Gallium PSMA-11 (sum of stereosiomers), HPLC [13]: 100.00% | [^68Ga] Gallium free, HPLC [13]: 0.00% | [^68Ga] Gallium main degradant, HPLC [13]: 0.00% | [^68Ga] Gallium PSMA-11 (sum of stereosiomers), HPLC [14]: 98.75% | [^68Ga] Gallium free, HPLC [14]: 0.00% | [^68Ga] Gallium main degradant, HPLC [14]: 0.54% | [^68Ga] Gallium PSMA-11 (sum of stereosiomers), HPLC [15]: 99.05% | [^68Ga] Gallium free, HPLC [15]: 0.03% | [^68Ga] Gallium main degradant, HPLC [15]: 0.42% | [^68Ga] Gallium PSMA-11 (sum of stereosiomers), HPLC [16]: 99.82% | [^68Ga] Gallium free, HPLC [16]: 0.00% | [^68Ga] Gallium main degradant, HPLC [16]: 0.00% | [^68Ga] Gallium PSMA-11 (sum of stereosiomers), HPLC [17]: 99.69% | [^68Ga] Gallium free, HPLC [17]: 0.00% | [^68Ga] Gallium main degradant, HPLC [17]: 0.06% | [^68Ga] Gallium PSMA-11 (sum of stereosiomers), HPLC [18]: 99.37% | [^68Ga] Gallium free, HPLC [18]: 0.00% | [^68Ga] Gallium main degradant, HPLC [18]: 0.49% | [^68Ga] Gallium PSMA-11 (sum of stereosiomers), HPLC [19]: 99.03% | [^68Ga] Gallium free, HPLC [19]: 0.00% | [^68Ga] Gallium main degradant, HPLC [19]: 0.38% | [^68Ga] Gallium PSMA-11 (sum of stereosiomers), HPLC [20]: 98.20% | [^68Ga] Gallium free, HPLC [20]: 0.00% | [^68Ga] Gallium main degradant, HPLC [20]: 0.37% | [^68Ga] Gallium PSMA-11 (sum of stereosiomers), HPLC [21]: 99.44% | [^68Ga] Gallium free, HPLC [21]: 0.00% | [^68Ga] Gallium main degradant, HPLC [21]: 0.44% | [^68Ga] Gallium PSMA-11 (sum of stereosiomers), HPLC [22]: 99.21% | [^68Ga] Gallium free, HPLC [22]: 0.00% | [^68Ga] Gallium main degradant, HPLC [22]: 0.33% | [^68Ga] Gallium PSMA-11 (sum of stereosiomers), HPLC [23]: 99.23% | [^68Ga] Gallium free, HPLC [23]: 0.00% | [^68Ga] Gallium main degradant, HPLC [23]: 0.46%
